Changes are numbered by the printed parent chain. Names and notes keep the numbering of the source.
T1: GltPh (Pyrococcus horikoshii, UniProt O59010)
T1 sequence (O59010 1-417 limits assumed): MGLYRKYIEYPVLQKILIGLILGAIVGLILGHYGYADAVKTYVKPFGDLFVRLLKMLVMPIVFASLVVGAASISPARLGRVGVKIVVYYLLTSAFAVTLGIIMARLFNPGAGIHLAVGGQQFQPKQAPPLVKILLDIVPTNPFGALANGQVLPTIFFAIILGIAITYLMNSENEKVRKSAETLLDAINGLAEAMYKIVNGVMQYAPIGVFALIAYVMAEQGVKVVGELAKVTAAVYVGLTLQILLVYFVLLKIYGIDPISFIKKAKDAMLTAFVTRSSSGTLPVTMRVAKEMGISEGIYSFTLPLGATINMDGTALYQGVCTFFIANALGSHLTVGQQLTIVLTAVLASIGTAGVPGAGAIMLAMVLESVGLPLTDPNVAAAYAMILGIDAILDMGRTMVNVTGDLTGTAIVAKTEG

T2: semisynthetic GltPh (Pyrococcus horikoshii, UniProt O59010, M385C)
T2 sequence (O59010 1-417 M385C limits assumed): T1 sequence (O59010 1-417 limits assumed) with M385C

B1: semisynthetic GltPh transporter (wild type sequence, M385C at the ligation site) (natural protein, Pyrococcus horikoshii)
chain: MGLYRKYIEYPVLQKILIGLILGAIVGLILGHYGYADAVKTYVKPFGDLFVRLLKMLVMPIVFASLVVGAASISPARLGRVGVKIVVYYLLTSAFAVTLGIIMARLFNPGAGIHLAVGGQQFQPKQAPPLVKILLDIVPTNPFGALANGQVLPTIFFAIILGIAITYLMNSENEKVRKSAETLLDAINGLAEAMYKIVNGVMQYAPIGVFALIAYVMAEQGVKVVGELAKVTAAVYVGLTLQILLVYFVLLKIYGIDPISFIKKAKDAMLTAFVTRSSSGTLPVTMRVAKEMGISEGIYSFTLPLGATINMDGTALYQGVCTFFIANALGSHLTVGQQLTIVLTAVLASIGTAGVPGAGAIMLAMVLESVGLPLTDPNVAAAYACILGIDAILDMGRTMVNVTGDLTGTAIVAKTEGTGSG

Experiments:
GltPh = target: T1, GltPh; test: […]-Asp uptake into proteoliposomes; type: biochemical; details: read-out: % inhibition at 10 μM
semisynthetic GltPh = target: T2, semisynthetic GltPh; test: […]-Asp uptake into proteoliposomes; type: biochemical; details: read-out: % inhibition at 10 μM
cross-linking = target: the molecule itself; test: cross-linking

Molecule | inhibition at 10 µM (GltPh) [%] | inhibition at 10 µM (semisynthetic GltPh) [%] | stoichiometry N (cross-linking)
NC(C(=O)O)C(OCc1ccccc1)C(=O)O (racemic) [TBOA] | 31 ± 10 | 42 ± 4 | –
B1 | – | – | 3
